Structures can show the parent of a compound that is named as a salt. Where two headings read alike, the source gives them in different places.

Data set [1] concerns A549 (Lung Adenocarcinoma). The data set is described as follows: Cell viability analysis, lung cancer A549. Conditions: for viability at 10 µM: Homo sapiens, A549. Type of data set: cell-based, human.
The subject of data set [2] is A375 (Amelanotic Melanoma). The data set is described as follows: Cell viability analysis, skin cancer A375. It is filed as cell-based, human. Conditions: for viability at 10 µM: Homo sapiens.
In data set [3] the test system is LoVo (Colorectal Adenocarcinoma). Briefly: Cell viability analysis, colon cancer LoVo. Type of data set: cell-based, human. Particulars: for viability at 10 µM: Homo sapiens, LoVo.
The test system of data set [4] is HeLa (Cervix Adenocarcinoma). Briefly: Cell viability analysis, cervical cancer HeLa. Conditions: for viability at 10 µM: Homo sapiens, HeLa. Type of data set: cell-based, human.
Data set [5] deals with AGS (Gastric Adenocarcinoma). Briefly: Cell viability analysis, gastric cancer AGS. Type of data set: cell-based, human. Conditions: for viability at 10 µM: Homo sapiens.
In data set [6] the test system is PC3 (p53−) (Prostate Adenocarcinoma). Briefly: Cell viability analysis, prostate cancer PC3. It is filed as cell-based, human. Particulars: for viability at 10 µM: Homo sapiens.
For data set [7], the system named is HepG2 (Hepatocellular Carcinoma). Briefly: Cell viability analysis, hepatic cancer HepG2. Type of data set: cell-based, human. Conditions: for viability at 10 µM: Homo sapiens, HepG2.
For data set [8], the system named is HL-60 (Acute Promyelocytic Leukemia). Briefly: Cell viability analysis, leukemia HL-60. It is filed as cell-based, human.
The subject of data set [9] is MKN-45 (Gastric Adenocarcinoma). Briefly: Cell viability analysis, gastric cancer MKN-45. It is filed as cell-based, human. Particulars: for viability at 10 µM: Homo sapiens, MKN-45.
In data set [10] the test system is MCF7 (Mammary Gland, Adenocarcinoma). Briefly: Cell viability analysis, breast cancer MCF7. Conditions: for viability at 10 µM: Homo sapiens. Type of data set: cell-based, human.
Data set [11] has as its system HI650 (Lung Adenocarcinoma). Briefly: Cell viability analysis, lung cancer HI650. Type of data set: cell-based, human. Particulars: for viability at 10 µM: Homo sapiens.
In data set [12] the test system is TSGH-8301 (Urinary Bladder Carcinoma). Briefly: Cell viability analysis, bladder cancer TSGH-8301. It is filed as cell-based, human. Particulars: for viability at 10 µM: Homo sapiens.
For data set [13], the system named is HCT116 (p53+) (Colorectal Carcinoma).
Data set [14] deals with C-33A (Cervical carcinoma). The data set is described as follows: Cell viability analysis, cervical cancer C-33A. It is filed as cell-based, human. Conditions: Homo sapiens, C-33-A, 72 h, read-out: The results of antibiotic drug inhibiting cancer cell lines (cell viability analysis), C-33A.
The test system of the next data set is U-2OS. Briefly: Cell viability analysis, osteosarcoma U-2OS. Type of data set: cell-based, human. Conditions: Homo sapiens, U2OS, 72 h, read-out: The results of antibiotic drug inhibiting cancer cell lines (cell viability analysis), U2OS.
The test system of the next data set is AsPC-1. The data set is described as follows: Cell viability analysis, pancreatic cancer AsPC-1. Type of data set: cell-based, human. Conditions: Homo sapiens, ASPC1, 72 h, read-out: The results of antibiotic drug inhibiting cancer cell lines (cell viability analysis), AsPC-1.
Another data set concerns T24. Briefly: Cell viability analysis, bladder cancer T24. Type of data set: cell-based, human. Conditions: Homo sapiens, T-24, 72 h, read-out: The results of antibiotic drug inhibiting cancer cell lines (cell viability analysis), T24.
Data set [15] concerns Hep3B (hepatocellular carcinoma). The data set is described as follows: Cell viability analysis, hepatic cancer Hep3B. It is filed as cell-based, human. Particulars: Homo sapiens, Hep3B, 72 h, read-out: The results of antibiotic drug inhibiting cancer cell lines (cell viability analysis), Hep3B.
Data set [16] concerns BCC (basal cell carcinoma). Briefly: Cell viability analysis, skin cancer BCC. It is filed as cell-based, human. Particulars: Homo sapiens, 72 h, read-out: The results of antibiotic drug inhibiting cancer cell lines (cell viability analysis), BCC.
The subject of data set [17] is MDA-MB-231 (Mammary Gland, Adenocarcinoma). Briefly: Cell viability analysis, breast cancer MDA-MB-231. It is filed as cell-based, human. Particulars: Homo sapiens, MDA-MB-231, 72 h, read-out: The results of antibiotic drug inhibiting cancer cell lines (cell viability analysis), MDA-MB231.
In another data set the test system is TOV-21G. The data set is described as follows: Cell viability analysis, ovarian cancer TOV-21G. It is filed as cell-based, human. Particulars: Homo sapiens, TOV21G, 72 h, read-out: The results of antibiotic drug inhibiting cancer cell lines (cell viability analysis), TOV-21G.
The test system of another data set is NIH: OVCAR-3. Briefly: Cell viability analysis, ovarian cancer NIH: OVCAR-3. It is filed as cell-based, human. Conditions: Homo sapiens, OVCAR-3, 72 h, read-out: The results of antibiotic drug inhibiting cancer cell lines (cell viability analysis), NIH-OVCAR-3.
Data set [18] deals with 786-O (Renal adenocarcinoma). Briefly: Cell viability analysis, renal cancer 786-O. It is filed as cell-based, human. Particulars: Homo sapiens, 786-0, 72 h, read-out: The results of antibiotic drug inhibiting cancer cell lines (cell viability analysis), 786-O.
Data set [19] has as its system SAS (Tongue squamous cell carcinoma). Briefly: Cell viability analysis, tongue cancer SAS. It is filed as cell-based, human. Particulars: Homo sapiens, 72 h, read-out: The results of antibiotic drug inhibiting cancer cell lines (cell viability analysis), SAS.
For the next data set, the system named is BxPC-3. Briefly: Cell viability analysis, pancreatic cancer BxPC-3. Particulars: Homo sapiens, BXPC-3, 72 h, read-out: The results of antibiotic drug inhibiting cancer cell lines (cell viability analysis), BxPC-3. Type of data set: cell-based, human.
For a further data set, the system named is cancer cell lines. Briefly: Cell viability analysis (WST-1) on cancer cell lines. It is filed as cell-based, human. Particulars: drug 10 μM, 72 hours, WST-1; Table 3. A general note: Tetrazolium assays rely on reduction of a dye to a coloured formazan, in cell work by metabolically active cells.
The mark [20] stands for this setting: drug 10 μM, 72 hours, WST-1, OD450 nm.

With `O=C([O-])C(O)[C@H](O)[C@@H](O)[C@H](O)[C@H](O)CO.O=C([O-])C(O)[C@H](O)[C@@H](O)[C@H](O)[C@H](O)CO.[Ca+2]` (some centres unmarked) [Calcium Gluceptate], the “cell viability (survival rate), A549” value in [1] (setting [20]) stood at 24.91. Moreover, in [2] (setting [20]), the “cell viability (survival rate), A375” value is listed as 36.97. For the same compound, the “cell viability (survival rate), LoVo” value in data set [3] (setting [20]) is listed as 55.29. Further, the “cell viability (survival rate), HeLa” value in [4] (setting [20]) is reported as 43.93. Further, the “cell viability (survival rate), AGS” value in data set [5] (setting [20]) is 79.67. Also, in data set [6] (setting [20]), the “cell viability (survival rate), PC3” value was found to be 37.91. Moreover, the “cell viability (survival rate), HepG2” value in data set [7] (setting [20]) worked out at 76.88. Besides, in data set [8] (setting [20]), the “cell viability (survival rate), HL-60” value worked out at 113.4525. For the same compound, the “cell viability (survival rate), MKN-45” value in [9] (setting [20]) was determined as 74.23. The “cell viability (survival rate), MCF7” value in [10] (setting [20]) stood at 34.24. Also, the “cell viability (survival rate), H1650” value in [11] (setting [20]) is 54.25. Besides, in data set [12] (setting [20]), the “cell viability (survival rate), TSGH” value worked out at 33.81. For the same compound, the “cell viability (survival rate), HCT116” value in data set [13] (drug 10 μM, 72 hours, WST-1, OD450 nm, head HCT116 / HCT116(WT)) amounted to 74.09.

Regarding `CCn1cc(C(=O)O)c(=O)c2cc(F)c(N3CCNC(C)C3)c(F)c21.Cl` (centres unmarked) [Lomefloxacin HCl (Maxaquin)], the “cell viability (survival rate), A549” value in [1] turned out to be 70.7. The “cell viability (survival rate), A375” value in [2] turned out to be 87.7. Besides, the “cell viability (survival rate), LoVo” value in data set [3] is 88.9. For the same compound, the “cell viability (survival rate), HeLa” value in [4] was found to be 135.0. For the same compound, the “cell viability (survival rate), AGS” value in [5] came to 77.5. In data set [6], the “cell viability (survival rate), PC3” value came to 63.3. Also, the “cell viability (survival rate), HepG2” value in [7] is recorded as 90.5. The “cell viability (survival rate), HL-60” value in data set [8] is reported as 96.5. In addition, in data set [9], the “cell viability (survival rate), MKN-45” value is on record as 92.7. Moreover, the “cell viability (survival rate), MCF7” value in data set [10] is given as 83.5. In addition, in data set [11], the “cell viability (survival rate), H1650” value is 56.6. The “cell viability (survival rate), TSGH” value in data set [12] came out at 61.2. Also, the “cell viability (survival rate), HCT116” value in [13] is 113.4.

Broadly, the viability is a read-out of living cells in per cent, often relative to untreated cells. As for `Cc1cc(C(C)(C)C)cc(C)c1CC1=NCCN1` [Xylometazoline HCl], the viability at 10 µM in data set [1] (72 h, repeated experiment, read-out: The results of antibiotic drug inhibiting cancer cell lines (cell viability analysis), A549) turned out to be 83%; in [1] (drug 10 μM, 72 hours, WST-1, OD450 nm, read-out: cell viability (survival rate), A549), 74.7%; in data set [14], 104%; in data set [2] (A-375, 72 h, A375, repeated experiment, read-out: The results of antibiotic drug inhibiting cancer cell lines (cell viability analysis), A375) it was 102%; in [2] (A-375, drug 10 μM, 72 hours, WST-1, OD450 nm, read-out: cell viability (survival rate), A375), 65.1%; with U-2OS, 60.2%. Further, the viability at 10 µM is 88.7% in data set [3] (72 h, repeated experiment, read-out: The results of antibiotic drug inhibiting cancer cell lines (cell viability analysis), LoVo); 47.1% in [3] (drug 10 μM, 72 hours, WST-1, OD450 nm, read-out: cell viability (survival rate), LoVo); 82.8% in the data set with AsPC-1; 117% in data set [4] (72 h, repeated experiment, read-out: The results of antibiotic drug inhibiting cancer cell lines (cell viability analysis), HeLa); 107% in data set [4] (drug 10 μM, 72 hours, WST-1, OD450 nm, read-out: cell viability (survival rate), HeLa); 92.5% in the data set on T24. Besides, the viability at 10 µM in data set [5] (72 h, AGS, repeated experiment, read-out: The results of antibiotic drug inhibiting cancer cell lines (cell viability analysis), AGS) was determined as 125%; in data set [5] (drug 10 μM, 72 hours, WST-1, OD450 nm, read-out: cell viability (survival rate), AGS) it was 52.2%; in [15] it was 114%; in [16] it was 116%; in [17], 96.3%; in data set [6] (72 h, PC-3, repeated experiment, read-out: The results of antibiotic drug inhibiting cancer cell lines (cell viability analysis), PC-3), 116%. The viability at 10 µM was 54.8% in data set [6] (drug 10 μM, 72 hours, WST-1, OD450 nm, read-out: cell viability (survival rate), PC3); 106% in data set [7] (72 h, repeated experiment, read-out: The results of antibiotic drug inhibiting cancer cell lines (cell viability analysis), HepG2); 83% in data set [7] (drug 10 μM, 72 hours, WST-1, OD450 nm, read-out: cell viability (survival rate), HepG2); 84.9% in data set [8] (Homo sapiens, HL-60, drug 10 μM, 72 hours, WST-1, OD450 nm, read-out: cell viability (survival rate), HL-60); 121% in [9] (72 h, repeated experiment, read-out: The results of antibiotic drug inhibiting cancer cell lines (cell viability analysis), MKN-45); 65.8% in data set [9] (drug 10 μM, 72 hours, WST-1, OD450 nm, read-out: cell viability (survival rate), MKN-45). Further, the viability at 10 µM in data set [10] (MCF7, 72 h, MCF-7, repeated experiment, read-out: The results of antibiotic drug inhibiting cancer cell lines (cell viability analysis), MCF-7) came to 90.1%; in data set [10] (MCF7, drug 10 μM, 72 hours, WST-1, OD450 nm, read-out: cell viability (survival rate), MCF7), 94.4%; with TOV-21G it was 92.3%; with NIH: OVCAR-3 it was 102%; in data set [18], 100%; in data set [19], 76.4%. Moreover, the viability at 10 µM in [11] (NCI-H1650, 72 h, H1650, repeated experiment, read-out: The results of antibiotic drug inhibiting cancer cell lines (cell viability analysis), H1650) was found to be 95.3%; in [11] (NCI-H1650, drug 10 μM, 72 hours, WST-1, OD450 nm, read-out: cell viability (survival rate), H1650), 33.4%; in data set [12] (72 h, TSGH-8301, repeated experiment, read-out: The results of antibiotic drug inhibiting cancer cell lines (cell viability analysis), TSGH-8301), 122%; in [12] (drug 10 μM, 72 hours, WST-1, OD450 nm, read-out: cell viability (survival rate), TSGH), 42.6%; with BxPC-3 it was 72.9%. The “inhibition effect on different cancer cell lines” value in the data set with cancer cell lines is “significant inhibition effect”.

The record behind these values is US10105357B2, “Indication of antibiotic drugs for preparation of cancer inhibition pharmaceutical composition” (LAUNX BIOMEDICAL CO., LTD., priority 2014, dated 2018).
